Source: patent publication US20240293416A1, “TREATMENT OF LIVER DISORDERS WITH A THR-ß AGONIST” (Terns Pharmaceuticals, Inc., priority 2021, published 2024)
Marks after values point to notes of the source that are not given here.

Assay: Single ascending dose trial: adverse event and safety monitoring
Assay type: in vivo, human
Conditions: fasted, n = 6
Method: A single-ascending dose clinical trial of Compound 1 (potassium salt) was performed.

N#Cc1nn(-c2cc(Cl)c(Oc3n[nH]c(=O)c4ccccc34)c(Cl)c2)c(=O)[nH]c1=O [Compound 2]
1 (16.7%): AEs by relationship to drug: Not related (single 30 mg dose) | CTCAE Grade 1 (single 30 mg dose) | CTCAE Grade 2 (single 30 mg dose)
0: AEs by relationship to drug: Possibly related (single 3 mg dose) | AEs by relationship to drug: Related (single 3 mg dose) | AEs by relationship to drug: Unlikely related (single 3 mg dose) | CTCAE Grade 1 (single 3 mg dose) | CTCAE Grade 2 (single 3 mg dose) | CTCAE Grade 3 or higher (single 3 mg dose) | Serious AEs (single 3 mg dose) | AEs by relationship to drug: Not related (single 10 mg dose) | AEs by relationship to drug: Possibly related (single 10 mg dose) | AEs by relationship to drug: Related (single 10 mg dose) | AEs by relationship to drug: Unlikely related (single 10 mg dose) | Any AE, all CTCAE grades (single 10 mg dose) | CTCAE Grade 1 (single 10 mg dose) | CTCAE Grade 2 (single 10 mg dose) | CTCAE Grade 3 or higher (single 10 mg dose) | Serious AEs (single 10 mg dose) | AEs by relationship to drug: Related (single 30 mg dose) | AEs by relationship to drug: Unlikely related (single 30 mg dose) | CTCAE Grade 3 or higher (single 30 mg dose) | Serious AEs (single 30 mg dose) | AEs by relationship to drug: Not related (single 60 mg dose) | AEs by relationship to drug: Possibly related (single 60 mg dose) | AEs by relationship to drug: Related (single 60 mg dose) | AEs by relationship to drug: Unlikely related (single 60 mg dose) | Any AE, all CTCAE grades (single 60 mg dose) | CTCAE Grade 1 (single 60 mg dose) | CTCAE Grade 2 (single 60 mg dose) | CTCAE Grade 3 or higher (single 60 mg dose) | Serious AEs (single 60 mg dose)
2 (33.3%): AEs by relationship to drug: Not related (single 3 mg dose) | Any AE, all CTCAE grades (single 3 mg dose) | Any AE, all CTCAE grades (single 30 mg dose)
1 (16.7%)*: AEs by relationship to drug: Possibly related (single 30 mg dose)
